Measurements published in ChEMBL document CHEMBL3137667, “[Drug-induced liver injury; fourteenth updated edition of the bibliographic database of liver injuries and related drugs]” (Gastroenterol Clin Biol, 2004).

Experiments:
[1] = Highest frequency of acute liver toxicity observed during clinical trials, expressed as a percentage. [column '% AIGUE' in source]; conditions: human
[2] = human
[3] = human; remark: listed apart in the source
[4] = human, serum
[5] = Proposed mechanism(s) of liver damage. [column 'MEC' in source]; conditions: human
[6] = human, serum; remark: listed apart in the source
[7] = human; remark: listed apart in the source
[8] = human, serum, 4383 h
[9] = human; remark: listed apart in the source
[10] = Highest frequency of moderate liver toxicity observed during clinical trials, expressed as a percentage. [column '% BIOL' in source]; conditions: human
[11] = human; remark: listed apart in the source
[12] = human; remark: listed apart in the source
[13] = human; remark: listed apart in the source
[14] = human; remark: listed apart in the source
[15] = human; remark: listed apart in the source
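For Hepatotoxicity (association with vascular disease) in this document: count of indexed literature references reporting vascular liver injury in humans, e.g. peliosis hepatitis, hepatic veno-occlusive disease or Budd-Chiari syndrome.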
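For Hepatotoxicity (benign tumour) in this document: value is a count of indexed literature references citing a benign tumour confirmed by histopathology.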
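For Hepatotoxicity (choleostasis) in this document: human cholestatic liver injury, shown by histopathology or by peak ALT or AST elevation over alkaline phosphatase ratio below 2, value counts indexed literature reports.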
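For Hepatotoxicity (chronic liver disease) in this document: chronic liver injury confirmed by histopathology or persistently raised serum aminotransferase activity beyond 6 months, value given as the count of indexed literature references.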
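For Hepatotoxicity (cirrhosis) in this document: value is a count of indexed literature references reporting cirrhosis confirmed by histopathology.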
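For Hepatotoxicity (cytolytic) in this document: human cytolytic liver injury, shown by histopathology or by a ratio above 5 of peak ALT or AST elevation to alkaline phosphatase elevation, value counts indexed references.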
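For Hepatotoxicity (granulomatous hepatitis) in this document: value is a count of indexed literature references reporting granulomatous liver disease confirmed by histopathology.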
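For Hepatotoxicity (malignant tumour) in this document: malignant tumour confirmed by histopathology, value gives the count of indexed literature references reporting it.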
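For Hepatotoxicity (severe hepatitis) in this document: human clinical data: severe hepatitis, meaning potentially life-threatening liver failure or clinically observed cases, the value counts how many indexed literature references report it.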
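For Hepatotoxicity (steatosis) in this document: steatosis confirmed by histopathology, value is the count of indexed references.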

SMILES	Hepatotoxicity (acute) [1] [%]	Hepatotoxicity (malignant tumour) [2]	Hepatotoxicity (granulomatous hepatitis) [3]	Hepatotoxicity (moderate) [4]	Hepatotoxicity (mechanism) [5]	Hepatotoxicity (acute) [6]	Hepatotoxicity (severe hepatitis) [7]	Hepatotoxicity (chronic liver disease) [8]	Hepatotoxicity (association with vascular disease) [9]	Hepatotoxicity (moderate) [10] [%]	Hepatotoxicity (benign tumour) [11]	Hepatotoxicity (steatosis) [12]	Hepatotoxicity (cytolytic) [13]	Hepatotoxicity (cirrhosis) [14]	Hepatotoxicity (choleostasis) [15]	Hepatotoxicity (acute) ([1]; Liver) [%]	Hepatotoxicity (severe hepatitis) ([7]; Liver)	Hepatotoxicity (moderate) ([10]; Liver) [%]
COc1nc(C)ccc1CN1CC1C#N (stereo not given) [CIAMEXON]	0	0	0	2	Dose-dependant	0	0	0	0	14	0	0	0	0	0			
CCN(CC)CC[n+]1ccc2c(C)c3[nH]c4ccc(O)cc4c3c(C)c2c1.[Cl-] [DATELLIPTIUM CHLORIDE]	7.1	0	0	2	Dose-dependant	2	0	0	0	66.7	0	0	2	0	0			
O=C[C@H](O)[C@@H](O)[C@H](O)[C@H](O)CO[C@H]1O[C@H](CO[C@H]2O[C@H](CO)[C@@H](O)[C@H](O)[C@H]2O)[C@@H](O)[C@H](O)[C@H]1O [DEXTRAN]	0	0	0	2	Dose-dependant	0	0	0	0	43.7	0	0	0	0	0			
CO[C@@H]1[C@@H](N)[C@@H](O[C@H]2[C@H](Oc3cccc4c(O)c5c(=O)oc6ccc(C)c7c(=O)oc(c34)c5c67)O[C@H](C)[C@H](O)[C@]2(C)O)O[C@H](C)[C@@H]1O [ELSAMITRUCIN]	1.6	0	0	4	Dose-dependant	2	1	0	0	13	0	0	0	0	0			
C[C@@](O)(/C=C/[C@H]1CC=CC(=O)O1)[C@@H](C[C@@H](O)\C=C/C=C\C=C\CO)OP(=O)(O)O [FOSTRIECIN]	0	0	0	1	Dose-dependant	0	0	0	0	5	0	0	0	0	0			
CCCCCCCCCCCCCCCCSCC(COC)COP(=O)([O-])OCC[N+](C)(C)C (stereo not given) [ILMOFOSINE]	0	0	0	5	Dose-dependant	0	0	0	0	71.4	0	0	0	0	0			
Cc1cnc(NC(=O)C2=C(O)c3ccccc3S(=O)(=O)N2C)s1 [MELOXICAM]		0	0	6	Dose-dependant	1		0	0		0	0	0	0	0	0	0	11.5
C=CCC1(C(C)C#CCC)C(=O)N=C(O)N(C)C1=O (stereo not given) [METHOHEXITAL]	0	0	0	1	Dose-dependant	0	0	0	0	0	0	0	0	0	0			
CCC1(CC)C(=O)NCC(C)C1=O (stereo not given) [METHYPRYLON]	0	0	0	1	Dose-dependant	1	0	0	0	0	0	0	1	0	1			
O=C1CN(/N=C/c2ccc([N+](=O)[O-])o2)C(=O)N1CO [NIFURTOINOL]	0	0	0	0	Allergic	0	0	2	0	0	0	0	0	0	0			
CO[C@@H]1[C@@H](OC(N)=O)[C@@H](O)[C@H](Oc2ccc3c(O)c(NC(=O)c4ccc(O)c(CC=C(C)C)c4)c(=O)oc3c2C)OC1(C)C [NOVOBIOCIN]	0	0	0	2	Allergic, Dose-dependant	5	2	0	0	40	0	0	2	0	3			
Nc1nc2[nH]cc(CCc3ccc(C(=O)N[C@@H](CCC(=O)O)C(=O)O)cc3)c2c(=O)[nH]1 [PEMETREXED]	0	0	0	1	Dose-dependant	0	0	0	0	100	0	0	0	0	0			
COc1ccc(OC)c(Cc2cnc3nc(N)nc(N)c3c2C)c1 [PIRITREXIM]	0	0	0	7	Dose-dependant	0	0	0	0	12.1	0	0	0	0	0			
CC(Cc1ccccc1)NCCC(c1ccccc1)c1ccccc1 (stereo not given) [PRENYLAMINE]	0	0	0	1	Dose-dependant	0	0	0	0	7.7	0	0	0	0	0			
